According to patent US9630977B2, “Cephalosporin derivatives and pharmaceutical compositions thereof” (Legochem Biosciences, Inc., priority 2011, dated 2017):
Values after ≈ are worked out from the molar mass of the structure shown.

These compounds were tested on P. aeruginosa 37 (assay: In vitro antibacterial activity test (broth microdilution)). Settings: Pseudomonas aeruginosa, 37, P. aeruginosa 37.
Type: cell-based
Protocol: (§1) To evaluate antibacterial activity of each of the compounds of Examples 1 to 68, in vitro antibacterial activity test was performed.
(§2) The in vitro antibacterial activity was evaluated by measuring MIC90 (ug/mL) of each of the compounds of Examples 1 to 68, which is defined as the lowest concentration of an antibiotic that will inhibit the visible growth of 90% of microorganisms after incubation as compared with a control group to which the antibiotic is not treated. MIC90 values were measured by the broth microdilution method developed by the Clinical and Laboratory Standards Institute (CLSI) (see CLSI M7-A5, Methods for Dilution Antimicrobial Susceptibility Test for Bacteria that Grow Aerobically-Fifth Edition (2000): CLSI, Villanova, Pa.).
(§3) In vitro antibacterial activity was measured with respect to the following 19 clinical isolates: M. catarrhalis; P. aeruginosa (5 strains); K. pneumoniae (6 strains); A. baumannii (3 strains); E. coli (2 strains); A. calcoaceticus; and E. cloacae.
(§4) Test compounds each (the cephalosporin derivative compounds prepared in Examples 1 to 68) were dissolved in DMSO at the concentration of 10,240 ug/mL, were diluted by two fold with DMSO, and then were diluted by twenty fold with sterilized distilled water. The final concentration in the antibacterial activity test was in the range of […] to 128 ug/mL, and the final concentration of DMSO used as an adjuvant was 2.5% (V/V).

Point of comparison: `CC(C)(O/N=C(\C(=O)N[C@@H]1C(=O)N2C(C(=O)[O-])=C(C[n+]3cnc(N)c(NC(=O)CCN)c3)CSC12)c1csc(N)n1)C(=O)O` (some centres unmarked) [Compound 48], MIC90 64 µg/mL (≈ 98.7 µM). Against it:
- CC(C)(O/N=C(\C(=O)N[C@@H]1C(=O)N2C(C(=O)[O-])=C(C[n+]3cnc(N)c(NCCN)c3)CSC12)c1csc(N)n1)C(=O)O (some centres unmarked) [Compound 37] — 4-fold lower, 16 µg/mL (≈ 25.8 µM)

Each compound was assayed on E. coli β4 in the same assay as above. Settings: Escherichia coli.
Type: cell-based
Protocol: as §1, §2, §3, §4

Point of comparison: `CC(C)(O/N=C(\C(=O)N[C@@H]1C(=O)N2C(C(=O)[O-])=C(C[n+]3cnc(N)c(NC(=O)CCN)c3)CSC12)c1csc(N)n1)C(=O)O` (some centres unmarked) [Compound 48], MIC90 2 µg/mL (≈ 3.08 µM). Against it:
- CC(C)(O/N=C(\C(=O)N[C@@H]1C(=O)N2C(C(=O)[O-])=C(C[n+]3cnc(N)c(NCCN)c3)CSC12)c1csc(N)n1)C(=O)O (some centres unmarked) [Compound 37] — 2-fold higher, 4 µg/mL (≈ 6.44 µM)

These compounds were tested on E. coli AG100 in the same assay as above. Settings: Escherichia coli, AG100.
Type: cell-based
Protocol: as §1, §2, §3, §4

Point of comparison: `CC(C)(O/N=C(\C(=O)N[C@@H]1C(=O)N2C(C(=O)[O-])=C(C[n+]3cnc(N)c(NC(=O)CCN)c3)CSC12)c1csc(N)n1)C(=O)O` (some centres unmarked) [Compound 48], MIC90 2 µg/mL (≈ 3.08 µM). Against it:
- CC(C)(O/N=C(\C(=O)N[C@@H]1C(=O)N2C(C(=O)[O-])=C(C[n+]3cnc(N)c(NCCN)c3)CSC12)c1csc(N)n1)C(=O)O (some centres unmarked) [Compound 37] — 2-fold higher, 4 µg/mL (≈ 6.44 µM)

What follows are compounds tested on E. cloacae β19 in the same assay as above. Settings: Enterobacter cloacae.
Type: cell-based
Protocol: as §1, §2, §3, §4

Point of comparison: `CC(C)(O/N=C(\C(=O)N[C@@H]1C(=O)N2C(C(=O)[O-])=C(C[n+]3cnc(N)c(NC(=O)CCN)c3)CSC12)c1csc(N)n1)C(=O)O` (some centres unmarked) [Compound 48], MIC90 128 µg/mL (≈ 197 µM). Against it:
- CC(C)(O/N=C(\C(=O)N[C@@H]1C(=O)N2C(C(=O)[O-])=C(C[n+]3cnc(N)c(NCCN)c3)CSC12)c1csc(N)n1)C(=O)O (some centres unmarked) [Compound 37] — 8-fold lower, 16 µg/mL (≈ 25.8 µM)

The compounds below were run on A. baumannii 46 in the same assay as above. Settings: Acinetobacter baumannii, 46, A. baumannii 46.
Type: cell-based
Protocol: as §1, §2, §3, §4

Point of comparison: `CC(C)(O/N=C(\C(=O)N[C@@H]1C(=O)N2C(C(=O)[O-])=C(C[n+]3cnc(N)c(NCCN)c3)CSC12)c1csc(N)n1)C(=O)O` (some centres unmarked) [Compound 37], MIC90 4 µg/mL (≈ 6.44 µM). Against it:
- CC(C)(O/N=C(\C(=O)N[C@@H]1C(=O)N2C(C(=O)[O-])=C(C[n+]3cnc(N)c(NC(=O)CCN)c3)CSC12)c1csc(N)n1)C(=O)O (some centres unmarked) [Compound 48] — 2-fold higher, 8 µg/mL (≈ 12.3 µM)

Each compound was assayed on P. aeruginosa 6065Y in the same assay as above. Settings: Pseudomonas aeruginosa, 6065Y.
Type: cell-based
Protocol: as §1, §2, §3, §4

Point of comparison: `CC(C)(O/N=C(\C(=O)N[C@@H]1C(=O)N2C(C(=O)[O-])=C(C[n+]3cnc(N)c(NC(=O)CCN)c3)CSC12)c1csc(N)n1)C(=O)O` (some centres unmarked) [Compound 48], MIC90 16 µg/mL (≈ 24.7 µM). Against it:
- CC(C)(O/N=C(\C(=O)N[C@@H]1C(=O)N2C(C(=O)[O-])=C(C[n+]3cnc(N)c(NCCN)c3)CSC12)c1csc(N)n1)C(=O)O (some centres unmarked) [Compound 37] — 2-fold lower, 8 µg/mL (≈ 12.9 µM)

Each compound was assayed on K. pneumoniae β14 in the same assay as above. Settings: Klebsiella pneumoniae.
Type: cell-based
Protocol: as §1, §2, §3, §4

Point of comparison: `CC(C)(O/N=C(\C(=O)N[C@@H]1C(=O)N2C(C(=O)[O-])=C(C[n+]3cnc(N)c(NCCN)c3)CSC12)c1csc(N)n1)C(=O)O` (some centres unmarked) [Compound 37], MIC90 16 µg/mL (≈ 25.8 µM). Against it:
- CC(C)(O/N=C(\C(=O)N[C@@H]1C(=O)N2C(C(=O)[O-])=C(C[n+]3cnc(N)c(NC(=O)CCN)c3)CSC12)c1csc(N)n1)C(=O)O (some centres unmarked) [Compound 48] — the same, 16 µg/mL (≈ 24.7 µM)

What follows are compounds tested on P. aeruginosa 1912E in the same assay as above. Settings: Pseudomonas aeruginosa, 1912E.
Type: cell-based
Protocol: as §1, §2, §3, §4

Point of comparison: `CC(C)(O/N=C(\C(=O)N[C@@H]1C(=O)N2C(C(=O)[O-])=C(C[n+]3cnc(N)c(NCCN)c3)CSC12)c1csc(N)n1)C(=O)O` (some centres unmarked) [Compound 37], MIC90 4 µg/mL (≈ 6.44 µM). Against it:
- CC(C)(O/N=C(\C(=O)N[C@@H]1C(=O)N2C(C(=O)[O-])=C(C[n+]3cnc(N)c(NC(=O)CCN)c3)CSC12)c1csc(N)n1)C(=O)O (some centres unmarked) [Compound 48] — 2-fold higher, 8 µg/mL (≈ 12.3 µM)

The compounds below were run on P. aeruginosa 40 in the same assay as above. Settings: Pseudomonas aeruginosa, 40.
Type: cell-based
Protocol: as §1, §2, §3, §4

Point of comparison: `CC(C)(O/N=C(\C(=O)N[C@@H]1C(=O)N2C(C(=O)[O-])=C(C[n+]3cnc(N)c(NCCN)c3)CSC12)c1csc(N)n1)C(=O)O` (some centres unmarked) [Compound 37], MIC90 4 µg/mL (≈ 6.44 µM). Against it:
- CC(C)(O/N=C(\C(=O)N[C@@H]1C(=O)N2C(C(=O)[O-])=C(C[n+]3cnc(N)c(NC(=O)CCN)c3)CSC12)c1csc(N)n1)C(=O)O (some centres unmarked) [Compound 48] — 2-fold higher, 8 µg/mL (≈ 12.3 µM)

The compounds below were run on A. calcoaceticus ATCC15473 in the same assay as above. Settings: Acinetobacter calcoaceticus, ATCC15473, A. calcoaceticus ATCC15473.
Type: cell-based
Protocol: as §1, §2, §3, §4

Point of comparison: `CC(C)(O/N=C(\C(=O)N[C@@H]1C(=O)N2C(C(=O)[O-])=C(C[n+]3cnc(N)c(NCCN)c3)CSC12)c1csc(N)n1)C(=O)O` (some centres unmarked) [Compound 37], MIC90 1 µg/mL (≈ 1.61 µM). Against it:
- CC(C)(O/N=C(\C(=O)N[C@@H]1C(=O)N2C(C(=O)[O-])=C(C[n+]3cnc(N)c(NC(=O)CCN)c3)CSC12)c1csc(N)n1)C(=O)O (some centres unmarked) [Compound 48] — 2-fold lower, 0.5 µg/mL (≈ 0.771 µM)

These compounds were tested on K. pneumoniae 2011E in the same assay as above. Settings: Klebsiella pneumoniae, 2011E.
Type: cell-based
Protocol: as §1, §2, §3, §4

Point of comparison: `CC(C)(O/N=C(\C(=O)N[C@@H]1C(=O)N2C(C(=O)[O-])=C(C[n+]3cnc(N)c(NC(=O)CCN)c3)CSC12)c1csc(N)n1)C(=O)O` (some centres unmarked) [Compound 48], MIC90 4 µg/mL (≈ 6.17 µM). Against it:
- CC(C)(O/N=C(\C(=O)N[C@@H]1C(=O)N2C(C(=O)[O-])=C(C[n+]3cnc(N)c(NCCN)c3)CSC12)c1csc(N)n1)C(=O)O (some centres unmarked) [Compound 37] — 2-fold higher, 8 µg/mL (≈ 12.9 µM)

These compounds were tested on A. baumannii 49 in the same assay as above. Settings: Acinetobacter baumannii, 49, A. baumannii 49.
Type: cell-based
Protocol: as §1, §2, §3, §4

Point of comparison: `CC(C)(O/N=C(\C(=O)N[C@@H]1C(=O)N2C(C(=O)[O-])=C(C[n+]3cnc(N)c(NCCN)c3)CSC12)c1csc(N)n1)C(=O)O` (some centres unmarked) [Compound 37], MIC90 128 µg/mL (≈ 206 µM). Against it:
- CC(C)(O/N=C(\C(=O)N[C@@H]1C(=O)N2C(C(=O)[O-])=C(C[n+]3cnc(N)c(NC(=O)CCN)c3)CSC12)c1csc(N)n1)C(=O)O (some centres unmarked) [Compound 48] — the same, 128 µg/mL (≈ 197 µM)

What follows are compounds tested on A. baumannii 52 in the same assay as above. Settings: Acinetobacter baumannii, 52.
Type: cell-based
Protocol: as §1, §2, §3, §4

Point of comparison: `CC(C)(O/N=C(\C(=O)N[C@@H]1C(=O)N2C(C(=O)[O-])=C(C[n+]3cnc(N)c(NCCN)c3)CSC12)c1csc(N)n1)C(=O)O` (some centres unmarked) [Compound 37], MIC90 64 µg/mL (≈ 103 µM). Against it:
- CC(C)(O/N=C(\C(=O)N[C@@H]1C(=O)N2C(C(=O)[O-])=C(C[n+]3cnc(N)c(NC(=O)CCN)c3)CSC12)c1csc(N)n1)C(=O)O (some centres unmarked) [Compound 48] — 2-fold higher, 128 µg/mL (≈ 197 µM)
